What was measured:
Human sEH = biological target: T1, Human sEH (Homo sapiens, UniProt P34913); experiment: sEH fluorescent-based inhibition assay; format: biochemical
T1 sequence (P34913 1-555): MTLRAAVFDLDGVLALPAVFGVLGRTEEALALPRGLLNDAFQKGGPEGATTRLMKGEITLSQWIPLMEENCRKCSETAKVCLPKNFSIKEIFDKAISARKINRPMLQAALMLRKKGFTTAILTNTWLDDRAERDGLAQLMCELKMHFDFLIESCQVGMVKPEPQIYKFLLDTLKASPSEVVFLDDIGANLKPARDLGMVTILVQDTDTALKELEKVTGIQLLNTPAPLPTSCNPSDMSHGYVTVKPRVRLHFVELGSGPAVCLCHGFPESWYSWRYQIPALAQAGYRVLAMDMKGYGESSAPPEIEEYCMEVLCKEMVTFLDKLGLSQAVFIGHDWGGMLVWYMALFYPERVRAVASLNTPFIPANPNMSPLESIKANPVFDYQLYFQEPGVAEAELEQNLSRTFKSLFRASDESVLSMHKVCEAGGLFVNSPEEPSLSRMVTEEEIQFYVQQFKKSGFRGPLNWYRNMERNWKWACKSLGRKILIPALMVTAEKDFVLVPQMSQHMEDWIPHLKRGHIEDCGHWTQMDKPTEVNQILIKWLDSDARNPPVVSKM

Rat sEH = biological target: T2, Rat sEH (Rattus norvegicus, UniProt P80299); experiment: sEH fluorescent-based inhibition assay; format: biochemical
T2 sequence (P80299 1-554): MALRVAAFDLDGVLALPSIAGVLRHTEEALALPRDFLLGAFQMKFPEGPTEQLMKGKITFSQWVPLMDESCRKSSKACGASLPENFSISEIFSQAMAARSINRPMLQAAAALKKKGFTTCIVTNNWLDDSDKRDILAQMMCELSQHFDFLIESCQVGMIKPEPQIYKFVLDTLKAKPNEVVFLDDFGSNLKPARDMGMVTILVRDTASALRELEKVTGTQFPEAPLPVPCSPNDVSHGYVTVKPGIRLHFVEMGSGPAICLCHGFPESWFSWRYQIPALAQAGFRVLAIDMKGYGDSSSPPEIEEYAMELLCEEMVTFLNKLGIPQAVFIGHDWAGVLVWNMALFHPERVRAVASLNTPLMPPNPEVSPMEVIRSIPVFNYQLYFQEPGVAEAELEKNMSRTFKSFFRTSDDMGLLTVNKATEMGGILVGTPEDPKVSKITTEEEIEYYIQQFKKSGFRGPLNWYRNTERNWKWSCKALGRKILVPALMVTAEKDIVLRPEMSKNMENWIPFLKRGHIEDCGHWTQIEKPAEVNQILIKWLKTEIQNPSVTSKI

5-HT1B = 5-HT1B (Homo sapiens, UniProt P28222); experiment: NIMH PDSP primary binding screen, 5-HT1B; details: read-out: Inhibition (%) 5-HT1B
5-HT1D = 5-HT1D (Homo sapiens, UniProt P28221); experiment: NIMH PDSP primary binding screen, 5-HT1D; details: read-out: Inhibition (%) 5-HT1D
Sequence of 5-HT1D (P28221 whole entry, species assumed): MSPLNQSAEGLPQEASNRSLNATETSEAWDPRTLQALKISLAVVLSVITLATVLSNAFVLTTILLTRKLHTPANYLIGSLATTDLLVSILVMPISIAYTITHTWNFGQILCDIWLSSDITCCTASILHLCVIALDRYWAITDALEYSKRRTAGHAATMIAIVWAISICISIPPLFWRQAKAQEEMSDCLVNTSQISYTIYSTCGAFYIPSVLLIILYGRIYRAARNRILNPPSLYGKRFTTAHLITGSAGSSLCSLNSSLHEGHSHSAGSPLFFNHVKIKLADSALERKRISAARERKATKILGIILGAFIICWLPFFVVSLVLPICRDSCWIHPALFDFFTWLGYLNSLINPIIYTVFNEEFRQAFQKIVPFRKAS

Sequence of 5-HT1B (P28222 whole entry, species assumed): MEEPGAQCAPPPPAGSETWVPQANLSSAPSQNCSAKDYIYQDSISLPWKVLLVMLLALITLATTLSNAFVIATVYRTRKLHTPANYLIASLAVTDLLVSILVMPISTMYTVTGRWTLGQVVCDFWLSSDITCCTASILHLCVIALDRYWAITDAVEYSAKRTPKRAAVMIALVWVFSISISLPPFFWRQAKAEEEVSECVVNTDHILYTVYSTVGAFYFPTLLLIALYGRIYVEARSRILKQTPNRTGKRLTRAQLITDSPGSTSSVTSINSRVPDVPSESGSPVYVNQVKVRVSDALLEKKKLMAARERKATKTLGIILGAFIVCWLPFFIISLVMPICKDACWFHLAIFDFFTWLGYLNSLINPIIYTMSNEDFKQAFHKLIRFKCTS

Molecule `O=C(Nc1ccc(-c2ccc3ccncc3c2)cc1)C1CCN(S(=O)(=O)c2ccccc2Cl)CC1` [Compound 4f, 1-((2-chlorophenyl)sulfonyl)-N-(4-(isoquinolin-7-yl)phenyl)piperidine-4-carboxamide] has an IC50 (Human sEH) of 2.2 nM, an IC50 (Rat sEH) of 1 nM and an inhibition at 10 µM (5-HT1B) of 12.4 ± 2.29%. The inhibition at 10 µM (5-HT1D) was 40.9 ± 11.2%.

Source: article PMC12018053 (Biochemistry and Biophysics Reports, 2025)
